This passage reports melting point and Ki results from patent publication US6489337B1, “Method for treating histamine H3 receptor-mediated disorders with 2- or 3-aryl substituted imidazo[1,2-a] pyridines” (Ortho-McNeil Pharmaceutical, Inc., priority 2000, dated 2002).

The target of series [1] is T1, human histamine H3 receptor (Homo sapiens, UniProt Q9Y5N1).
T1 construct: expressed in transfected cells; membranes prepared from cell pellets
Nature of the series: [3H]-N-methylhistamine binding. The note with it: membranes of histamine H3 receptor-expressing SK-N-MC cells; 0.8 nM [3H]-N-methylhistamine; 45 minutes at 25° C.; KI=(IC50)/(1+([L]/(KD)), KD 800 pM. The procedure: In the present invention receptor binding was determined using the human histamine H3 receptor (See Lovenberg et al Mol. Pharmacol. 1999, 1107). Screening using the human receptor is particularly important for the identification of new therapies for the treatment of human disease. Conventional binding assays for example are determined using rat synaptosomes (Garbarg et al J. Pharmacol. Exp. Ther. 1992, 263, 304), rat cortical membranes (West et al Mol. Pharmacol. 1990, 610), and guinea pig brain (Korte et al Biochem. Biophys. Res. Commun. 1990, 978). Only limited studies have been performed previously using human tissue but these allude to significant differences in the pharmacology of rodent and primate receptors (West et al Eur. J. Pharmacol. 1999, 233).
A 10 cm tissue culture dish with a confluent monolayer of SK-N-MC cells was split two days prior to transfection. Using sterile technique the media was removed and the cells were detached from the dish by the addition of trypsin. One fifth of the cells were then placed onto a new 10 cm dish. Cells were grown in a 37° C. incubator with 5% CO2 in Minimal Essential Media Eagle with 10% Fetal Bovine Serum. After two days cells were approximately 80% confluent. These were removed from the dish with trypsin and pelleted in a clinical centrifuge. The pellet was then re-suspended in 400 μL complete media and transferred to an electroporation cuvette with a 0.4 cm gap between the electrodes (Bio-Rad #165-2088). One microgram supercoiled H3 receptor cDNA was added to the cells and mixed. The voltage for the electroporation was set at 0.25 kV, the capacitance is set at 960 μF.
After electroporation the cells were diluted into 10 mL complete media and plated onto four 10 cm dishes. Due to the variability in the efficiency of electroporation, four different concentrations of cells were plated. The ratios used were: 1:20, 1:10, and 1:5, with the remainder of the cells being added to the fourth dish. The cells were allowed to recover for 24 hours before adding the selection media (complete media with 600 μg/ml G418). After 10 days dishes were analyzed for surviving colonies of cells. Dishes with well-isolated colonies were used. Cells from individual colonies were isolated and tested. SK-N-MC cells were used because they give efficient coupling for inhibition of adenylate cyclase. The clones that gave the most robust inhibition of adenylate cyclase in response to histamine were used for further study.
1(B) [^3H]-N-methylhistamine Binding
Cell pellets from histamine H3 receptor-expressing SK-N-MC cells were homogenized in 20 mM TrisHCl/0.5 mM EDTA. Supernatants from a 800 g spin were collected, recentrifuged at 30,000 g for 30 minutes. Pellets were rehomogenized in 50 mM Tris/5 mM EDTA (pH 7.4). Membranes were incubated with 0.8 nM [^3H]-N-methylhistamine plus/minus test compounds for 45 minutes at 25° C. and harvested by rapid filtration over GF/C glass fiber filters (pretreated with 0.3% polyethylenimine) followed by four washes with ice cold buffer. Filters were dried, added to 4 mL scintillation cocktail and then counted on a liquid scintillation counter. Non-specific binding was defined with 10 μM histamine according to Chen and Prusoff, Biochem. Pharmacol. 1973, 22:3099. KI values were calculated based on a KD of 800 pM and a ligand concentration ([L]) of 800 pM according to the formula: KI=(IC50)/(1+([L]/(KD)). KI values are provided in the examples above.

Where a name gives a salt, the structure may show the parent alone.

T1 sequence (Q9Y5N1 whole entry): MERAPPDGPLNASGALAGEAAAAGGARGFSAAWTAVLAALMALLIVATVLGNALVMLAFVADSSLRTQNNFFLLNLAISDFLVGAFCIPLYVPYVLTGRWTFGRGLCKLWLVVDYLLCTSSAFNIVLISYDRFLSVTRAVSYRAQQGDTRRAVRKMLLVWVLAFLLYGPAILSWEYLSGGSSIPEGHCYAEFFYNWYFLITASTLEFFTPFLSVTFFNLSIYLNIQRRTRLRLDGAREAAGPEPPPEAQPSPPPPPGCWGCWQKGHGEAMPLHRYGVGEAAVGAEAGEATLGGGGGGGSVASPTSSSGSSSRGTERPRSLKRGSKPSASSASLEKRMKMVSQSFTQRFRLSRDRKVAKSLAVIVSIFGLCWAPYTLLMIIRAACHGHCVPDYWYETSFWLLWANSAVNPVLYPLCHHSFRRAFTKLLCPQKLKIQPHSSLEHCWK

The melting point is the temperature, or range, at which the solid turns liquid. In turn, `CCCCN(CCCC)CCCOc1ccc(-c2cn3ccccc3n2)cc1` (as salt: HCl) [Example 1, 2-(4-Dibutylaminopropoxyphenyl)imidazo[1,2-a]pyridine] displayed a melting point of 179 to 183 °C.

As to `CCCCN(CCCC)CCCOc1ccc(-c2cn3cccc(C)c3n2)cc1` (as salt: HCl) [Example 2, 2-[4-[3-(Dibutylamino)propoxy]phenyl)-8-methylimidazo[1,2-a]pyridine], the melting point was 214 to 217 °C.

Take `CCCCN(CCCC)CCCOc1ccc(-c2nc3c(C)cccn3c2C)cc1` (as salt: HCl) [Example 4, 2-(4-Dibutylaminopropoxyphenyl)-3,8-dimethylimidazo[1,2-a]pyridine]: the melting point lay within 202 to 204 °C.

Turning to `CCCCN(CCCC)CCCOc1ccc(C(=O)c2cn3cccc(C)c3n2)cc1` (as salt: HCl) [Example 5, 2-(4-Dibutylaminopropoxybenzoyl)-8-methylimidazo[1,2-a]pyridine], the melting point was 159 to 161 °C.

One may read the Ki as a dissociation constant, usually derived from enzyme kinetics or from competition with a known ligand. Read a high Ki as lower affinity. Take `CCCCN(CCCC)CCCOc1ccc(-c2cn3cccc(C)c3n2)cc1` [Example 2, 2-[4-[3-(Dibutylamino)propoxy]phenyl)-8-methylimidazo[1,2-a]pyridine]: the Ki in series [1] came out at 500 nM.

Consider `CCCCN(CCCC)CCCOc1ccc(C(=O)c2cn3ccc(C)cc3n2)cc1` [Example 3, [4-(3-dibutylamino-propoxy)-phenyl]-(7-methyl-imidazo[1,2-a]pyridin-2-yl)-methanone], for which affinity in series [1] was put at a Ki of 70 nM.

`CCCCN(CCCC)CCCOc1ccc(-c2nc3c(C)cccn3c2C)cc1` [Example 4, 2-(4-Dibutylaminopropoxyphenyl)-3,8-dimethylimidazo[1,2-a]pyridine] returned a Ki in series [1] of 327 nM.

With `CCCCN(CCCC)CCCOc1ccc(C(=O)c2cn3cccc(C)c3n2)cc1` [Example 5, 2-(4-Dibutylaminopropoxybenzoyl)-8-methylimidazo[1,2-a]pyridine], the affinity in series [1], expressed as Ki, was 500 nM.

For the compound `CCCN(CCC)CCCOc1ccc(-c2cn3cccc(C)c3n2)cc1` [Example 7, 2-(4-Dipropylaminopropoxyphenyl)-8-methylimidazo[1,2-a]pyridine], the Ki in series [1] was found to be 44 nM.

`Cc1cccn2cc(-c3ccc(OCCCN(C)C)cc3)nc12` [Example 8, 2-(4-Dimethylaminopropoxyphenyl)-8-methylimidazo[1,2-a]pyridine]: in series [1], the affinity corresponds to a Ki of 14 nM.

The compound `CN(C)CCCOc1ccc(-c2cn3ccccc3n2)cc1` [Example 9, 2-(4-Dimethylaminopropoxyphenyl)imidazo[1,2-a]pyridine] displayed a Ki in series [1] of 119 nM.

With `CCN(CC)CCOc1ccc(-c2cn3cccc(C)c3n2)cc1` [Example 10, 2-(4-Diethylaminoethoxyphenyl)-8-methylimidazo[1,2-a]pyridine], the affinity in series [1] corresponds to a Ki of 15 nM.

As for `Cc1cccn2cc(-c3ccc(OCCN(C(C)C)C(C)C)cc3)nc12` [Example 11, 2-(4-Diisopropylaminoethoxyphenyl)-8-methylimidazo[1,2-a]pyridine], the Ki in series [1] is 55 nM.

The compound `CCCCCN(CCCCC)CCCOc1ccc(-c2cn3cccc(C)c3n2)cc1` [Example 13, 2-(4-Dipentylaminopropoxyphenyl)-8-methylimidazo[1,2-a]pyridine] yielded a Ki in series [1] of 500 nM.

Take `CCCN(CCC)CCCOc1ccc(-c2cn3cccc(C)c3n2)cc1C` [Example 14, 2-(4-Dipropylaminopropoxy-(3-methyl)-phenyl)-8-methylimidazo[1,2-a]pyridine]: the Ki in series [1] came to 14 nM.
